{"source": "patent US6692927B2", "about": "“Bax degradation involvement in tumor survival and progression” (University of South Florida, priority 2000, dated 2004)", "key": {"Bax degradation activity": {"test_system": "Bax degradation activity", "experiment": "cell-free Bax (or Bcl-2) degradation assay with extracts of inhibitor-pretreated cells", "format": "cell-based, human", "procedure": "FIGS. 9A-9F show Bax degradation depends on ubiquitination, proteasome and ATP. (FIG. 9A) Jurkat cells (0 h) were treated with either 50 μM LLnV or 10 μM lactacystin, followed by preparation of Bax immunoprecipitates (with clone 6A7), which were immunoblotted with an ubiquitin antibody. Positions of putative ubiquitinated Bax proteins (p47, p55) are indicated at left. The nature of the ˜30 kDa and ˜84 kDa remains unclear. (FIG. 9B) The [^35S]-labeled Bax (upper) or Bcl-2 (lower) protein (1 μl) were incubated at 37° C. for 2 h with either buffer Z only (lane 1) or […] protein extract of MCF-7 cells grown exponentially (lane 2) or pretreated for 8 h with […] LLnV (lane 3). (FIG. 9C) The [^35S]-labeled Bax protein (1 μl) was incubated with either buffer Z only (lane 1) or 100 μg MCF-7 cell lysate at 37° C. for 4 h, in the presence of an indicated inhibitor (100 mM; lanes 3-8) or an equal volume of DMSO (lane 2) in buffer Z. A weak band of ˜16 kDa (indicated by an arrow) is probably an intermediate product of proteasome-mediated Bax degradation. (FIG. 9D) The proteasome in MCF-7 whole cell lysate (W lys, lane 1) was precipitated by using either ultraspin (ULS) or a proteasome subunit a6 antibody (IP). Both supernatant (lanes 2, 4) and pellet (lanes 3, 5) fractions were examined by Western blot assay using antibody to the proteasome a6 subunit (MW 33 kDa). (FIG. 9E) Bax degradation assay was performed as in FIG. 9B, with addition of buffer Z (lane 1) or 100 μg protein from MCF-7 whole cell lysate (lane 2), ultraspun supernatant (lane 3) or plus the pellet (lane 4), immunodepleted supernatant (lane 5) or plus a purified 20S proteasome ([…]; lane 6), or the purified proteasome alone (2 μg; lane 7). (FIG. 9F) Bax degradation assay was performed as in FIG. 9B, in the absence (lane 3) or presence of 10 mM ATP (lane 2) or 10 mM ATP-y-S (lane 4).\nIn vitro Bax Degradation Assay: Human Bax-a cDNA subcloned into pcDNA3 was a gift from Dr. Hong-gang Wang. Human full length of bcl-2-a cDNA was cloned from Jurkat T cells and subcloned into pcDNA3.1(−) as described+. Both bax and bcl-2 plasmids were used for coupled in vitro transcription/translation (Promega; Madison, Wis.) in the presence of [^35S]methionine (Amersham Pharmacia Biotech; Piscataway, N.J.). Protein extracts were prepared from either MCF-7 cells or prostate tumor tissues in buffer Y (50 mM Tris-HCl, pH 7.4, 250 mM NaCl, 1% Triton X-100, 0.1% SDS, 1 mM EDTA), and used for Bax (or Bcl-2) degradation assay. […]"}, "MCF-7 cells": {"test_system": "MCF-7 cells", "experiment": "Bax level and PARP cleavage in MCF-7 cells", "format": "cell-based, human", "settings": "LLnV", "source_text": "Levels of BDA predict levels of Bax and consequently influence sensitivity of human cancer cells to proteasome inhibitor-induced apoptosis. Basal level of Bax protein in SV40-transformed WI-38 cells (VA13) was several-fold higher than that of human breast cancer MCF-7 cells (FIG. 1E, top panel, lanes 1 vs. 3). This is due to a much lower level of BDA in VA13 cells than in MCF-7 cells (FIG. 1E, lower panel, lanes 1 vs. 3). This conclusion is further confirmed by using increased amounts of protein extracts of each cell line in the cell-free BDA assay (FIG. 4A, top panel). […] In contrast, when MCF-7 cells were treated under the same conditions, Bax levels were not increased; PARP was cleaved only after 24 hours treatment, which is Bax-independent (FIG. 4B, lanes 6-9). Therefore, although highly preliminary, it appears that levels of BDA determine levels of Bax and consequently affect responsiveness of human cancer cells to proteasome inhibition-induced apoptosis."}, "[1]": {"settings": "Jurkat T cells pretreated with LLnV (50 µM, 8 hours)"}}, "note": "Where a SMILES comes first, the peptide text is derived from it. [ ]: non-standard residue; d: D form. The star is where a group is joined. Nva = CCC[C@H](N)C(=O)O; Cbz = O=C(OCc1ccccc1)*"}
{"smiles": "CCC[C@@H](C=O)NC(=O)[C@H](CC(C)C)NC(=O)[C@H](CC(C)C)NC(=O)OCc1ccccc1", "note": "[LLnV] (Cbz-Leu-Leu-[Nva]-aldehyde)", "values": [{"measurement": "Bax degradation activity in the cell extract", "setting": "Bax degradation activity; [1]", "value": "inhibited"}, {"measurement": "levels of labeled Bcl-2 after in vitro incubation", "setting": "Bax degradation activity; [1]", "value": "no effects"}, {"measurement": "cell-free Bax degradation activity", "setting": "Bax degradation activity; MCF-7 cells pretreated for 8 h with 50 mM LLnV (FIG. 9B legend)", "value": "inhibited"}, {"measurement": "BDA inhibition, VA-13 compared with MCF-7", "setting": "Bax degradation activity; cells pretreated with LLnV", "value": "a greater inhibition was observed in VA-13 than in MCF-7 cells"}, {"measurement": "time after which PARP was cleaved", "setting": "MCF-7 cells; Bax-independent", "value": 24, "unit": "h"}, {"measurement": "Bax levels", "setting": "MCF-7 cells; same conditions as VA-13", "value": "not increased"}]}
